Measurements reported in ChEMBL document CHEMBL3508693 (2016).

Assays:
[1] = % aliskiren recovered as metabolite M12 in plasma following 10 day repeated oral administration of [14C] aliskiren hemifumarate at 100 mg.Kg-1 level studied in rat; format: ADME, organism-based, Albino HAN:WIST; settings: in vivo, 240 h
[2] = % aliskiren recovered as metabolite M12 in urine following 10 day repeated oral administration of [14C] aliskiren hemifumarate at 100 mg.Kg-1 level studied in rat; format: ADME, organism-based, Albino HAN:WIST; settings: in vivo, 240 h
[3] = % of radioactivity recovered as M12 in urine following intravenous administration of [14C] aliskiren hemifumarate at 10 mg.Kg-1 level in rat; format: ADME, organism-based, Albino HAN:WIST; settings: in vivo
[4] = % of radioactivity recovered as M12 in plasma following oral administration of [14C] aliskiren hemifumarate at 100 mg.Kg-1 level in rat; format: ADME, organism-based, Albino HAN:WIST; settings: in vivo
[5] = % of radioactivity recovered as M12 in plasma following intravenous administration of [14C] aliskiren hemifumarate at 10 mg.Kg-1 level in rat; format: ADME, organism-based, Albino HAN:WIST; settings: in vivo
[6] = % of radioactivity recovered as M12 in faeces following intravenous administration of [14C] aliskiren hemifumarate at 10 mg.Kg-1 level in rat; format: ADME, organism-based, Albino HAN:WIST, Feces; settings: in vivo
[7] = % aliskiren hemifumarate recovered as M12 in faeces following single oral dose of 300 mg [14C]SPP100 studied in healthy men; format: ADME, organism-based, Feces; settings: human, in vivo, at 300 mg
[8] = % aliskiren hemifumarate recovered as M12 in urine and faeces following single oral dose of 300 mg [14C]SPP100 studied in healthy men; format: ADME, organism-based, Urine/Feces; settings: human, in vivo, at 300 mg
[9] = % of radioactivity recovered as M12 in urine following oral administration of [14C] aliskiren hemifumarate at 100 mg.Kg-1 level in rat; format: ADME, organism-based, Albino HAN:WIST; settings: in vivo
[10] = % aliskiren hemifumarate recovered as M12 in urine following single oral dose of 300 mg [14C]SPP100 studied in healthy men; format: ADME, organism-based; settings: human, in vivo
[11] = % aliskiren recovered as metabolite M12 in faeces following 10 day repeated oral administration of [14C] aliskiren hemifumarate at 100 mg.Kg-1 level studied in rat; format: ADME, organism-based, Albino HAN:WIST, Feces; settings: in vivo, 240 h
[12] = % of radioactivity recovered as M12 in faeces following oral administration of [14C] aliskiren hemifumarate at 100 mg.Kg-1 level in rat; format: ADME, organism-based, Albino HAN:WIST, Feces; settings: in vivo
[13] = % of radioactivity recovered as M9 from M2 in faeces following intravenous administration of [14C] aliskiren hemifumarate at 10 mg.Kg-1 level in rat; format: ADME, organism-based, Albino HAN:WIST, Feces; settings: in vivo
[14] = % of radioactivity recovered as M9 from M2 in plasma following oral administration of [14C] aliskiren hemifumarate at 100 mg.Kg-1 level in rat; format: ADME, organism-based, Albino HAN:WIST; settings: in vivo
[15] = % aliskiren hemifumarate recovered as M9 in urine and faeces following single oral dose of 300 mg [14C]SPP100 studied in healthy men; format: ADME, organism-based, Urine/Feces; settings: human, in vivo
[16] = % aliskiren recovered as metabolite M9 in faeces following 10 day repeated oral administration of [14C] aliskiren hemifumarate at 100 mg.Kg-1 level studied in rat; format: ADME, organism-based, Albino HAN:WIST, Feces; settings: in vivo, 240 h
[17] = % of radioactivity recovered as M9 from M2 in urine following intravenous administration of [14C] aliskiren hemifumarate at 10 mg.Kg-1 level in rat; format: ADME, organism-based, Albino HAN:WIST; settings: in vivo
[18] = % of radioactivity recovered as M9 from M2 in urine following oral administration of [14C] aliskiren hemifumarate at 100 mg.Kg-1 level in rat; format: ADME, organism-based, Albino HAN:WIST; settings: in vivo
[19] = % aliskiren recovered as metabolite M9 in urine following 10 day repeated oral administration of [14C] aliskiren hemifumarate at 100 mg.Kg-1 level studied in rat; format: ADME, organism-based, Albino HAN:WIST; settings: in vivo, 240 h
[20] = % aliskiren hemifumarate recovered as M9 in urine following single oral dose of 300 mg [14C]SPP100 studied in healthy men; format: ADME, organism-based; settings: human, in vivo
[21] = % aliskiren hemifumarate recovered as M9 in faeces following single oral dose of 300 mg [14C]SPP100 studied in healthy men; format: ADME, organism-based, Feces; settings: human, in vivo
[22] = % aliskiren recovered as metabolite M9 in plasma following 10 day repeated oral administration of [14C] aliskiren hemifumarate at 100 mg.Kg-1 level studied in rat; format: ADME, organism-based, Albino HAN:WIST; settings: in vivo, 240 h
[23] = % of radioactivity recovered as M9 from M2 in plasma following intravenous administration of [14C] aliskiren hemifumarate at 10 mg.Kg-1 level in rat; format: ADME, organism-based, Albino HAN:WIST; settings: in vivo
[24] = % of radioactivity recovered as M9 from M2 in faeces following oral administration of [14C] aliskiren hemifumarate at 100 mg.Kg-1 level in rat; format: ADME, organism-based, Albino HAN:WIST, Feces; settings: in vivo
CYP2A6 [25] = biological target: T1, CYP2A6 (Homo sapiens, UniProt P11509); experiment: in vitro; settings: probe coumarine
T1 sequence (P11509 whole entry): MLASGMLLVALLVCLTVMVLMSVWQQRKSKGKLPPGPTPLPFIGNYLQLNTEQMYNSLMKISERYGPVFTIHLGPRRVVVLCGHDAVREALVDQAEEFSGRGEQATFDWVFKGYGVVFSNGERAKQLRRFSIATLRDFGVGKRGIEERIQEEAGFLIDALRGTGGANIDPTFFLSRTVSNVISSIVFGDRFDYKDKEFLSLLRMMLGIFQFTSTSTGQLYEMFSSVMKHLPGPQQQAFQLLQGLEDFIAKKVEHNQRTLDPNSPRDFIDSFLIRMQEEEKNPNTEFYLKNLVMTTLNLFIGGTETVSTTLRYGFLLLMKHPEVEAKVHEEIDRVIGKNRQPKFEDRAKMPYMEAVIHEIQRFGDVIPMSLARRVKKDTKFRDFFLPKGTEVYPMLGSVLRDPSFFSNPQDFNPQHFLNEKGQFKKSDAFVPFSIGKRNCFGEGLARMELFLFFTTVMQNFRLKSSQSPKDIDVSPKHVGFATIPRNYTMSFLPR

CYP2A6 [26] = biological target: T1, CYP2A6; experiment: in vitro; settings: probe coumarine; remark: listed apart in the source
CYP2C19 [27] = biological target: T2, CYP2C19 (Homo sapiens, UniProt P33261); experiment: in vitro; settings: probe (S)-mephenytoin (50 uM)
T2 sequence (P33261 whole entry): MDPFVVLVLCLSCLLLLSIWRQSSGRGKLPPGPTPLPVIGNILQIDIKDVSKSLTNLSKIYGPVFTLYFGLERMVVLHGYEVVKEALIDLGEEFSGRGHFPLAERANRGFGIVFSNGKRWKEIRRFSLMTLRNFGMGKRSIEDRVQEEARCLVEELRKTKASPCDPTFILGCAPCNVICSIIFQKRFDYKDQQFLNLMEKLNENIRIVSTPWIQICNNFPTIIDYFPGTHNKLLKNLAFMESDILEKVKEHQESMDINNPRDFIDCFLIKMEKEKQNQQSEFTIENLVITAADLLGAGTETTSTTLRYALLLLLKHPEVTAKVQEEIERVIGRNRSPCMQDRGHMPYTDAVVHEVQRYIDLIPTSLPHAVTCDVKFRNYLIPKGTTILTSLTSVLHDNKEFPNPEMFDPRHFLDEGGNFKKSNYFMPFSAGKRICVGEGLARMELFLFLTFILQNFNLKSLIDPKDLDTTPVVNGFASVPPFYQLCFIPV
Description: Inhibitory activity of 100 uM tranylcypromine on 34 Pmoles of cDNA-derived CYP2C19 enzyme in microsome prepared from human lymphoblastoid cell line

CYP2A6 [28] = biological target: T1, CYP2A6; experiment: in vitro; settings: probe coumarine; remark: listed apart in the source
CYP2C19 [29] = biological target: T2, CYP2C19; experiment: in vitro; settings: probe (S)-mephenytoin (50 uM); remark: listed apart in the source
Description: Inhibitory activity of 100 uM tranylcypromine on 49 Pmoles of cDNA-derived CYP2C19 enzyme in microsome prepared from human lymphoblastoid cell line

COCCCOc1cc(C[C@@H](C[C@H](NC(C)=O)[C@@H](O)C[C@H](C(=O)NCC(C)(C)C(N)=O)C(C)C)C(C)C)ccc1OC
Compound recovery [1]: OUTCOME = Not detected | Compound recovery [2]: OUTCOME = Not detected | Compound recovery [3]: OUTCOME = Not detected or not investigated | Compound recovery [4]: OUTCOME = Not detected or not investigated | Compound recovery [5]: OUTCOME = Not detected or not investigated | Compound recovery [6]: OUTCOME = Not detected or not investigated | Compound recovery [7]: < 1% | Compound recovery [8]: < 1% | Compound recovery [9]: OUTCOME = Not detected or not investigated | Compound recovery [10]: OUTCOME = Not detected | Compound recovery [11]: OUTCOME = Observed, VALUE = Measurable quantities | Compound recovery [12]: <= 2%

COCCCOc1cc(C[C@@H](C[C@H](N)[C@@H]2C[C@H](C(C)C)C(=O)O2)C(C)C)ccc1OC
Compound recovery [13]: OUTCOME = Not detected or not investigated | Compound recovery [14]: OUTCOME = Not detected or not investigated | Compound recovery [15]: OUTCOME = Not detected | Compound recovery [16]: OUTCOME = Observed, VALUE = Minor amounts | Compound recovery [17]: OUTCOME = Not detected or not investigated | Compound recovery [18]: OUTCOME = Non-radiolabeled metabolite was observed by LC-MS | Compound recovery [19]: OUTCOME = Observed, VALUE = Minor amounts | Compound recovery [20]: OUTCOME = Not detected | Compound recovery [21]: OUTCOME = Not detected | Compound recovery [22]: OUTCOME = Observed, VALUE = Minor amounts | Compound recovery [23]: OUTCOME = Not detected or not investigated | Compound recovery [24]: OUTCOME = Not detected or not investigated

N[C@@H]1C[C@H]1c1ccccc1.N[C@H]1C[C@@H]1c1ccccc1 [TRANYLCYPROMINE]
inhibition at 100 µM (CYP2A6 [25]): 98% | inhibition at 100 µM (CYP2A6 [26]): 97% | inhibition at 100 µM (CYP2C19 [27]): 97% | inhibition at 100 µM (CYP2A6 [28]): 99% | inhibition at 100 µM (CYP2C19 [29]): 96%
